According to US20150104868A1, “Methods of Maintaining and Improving Biological Cell Function and Activity” (GARGILL INCORPORATED, priority 2012, published 2015):

Tests used:
HUVEC cells [1] = settings: ERT by itself, non-diabetic conditions; cited from earlier work
HUVEC cells [2] = assay: Oxidative damage: protein carbonyls in HUVEC; format: cell-based, human; settings: HG 30 mM glucose 24 h, with or without 5 mM ERT/MAN
Description: The prepared cells were seeded in 6 well plates and T75 flasks and grown until 80% confluence. The medium was removed, and the cells were washed with Hank's Balanced Salt Solution (HBSS). […] The vehicle solution is the solvent for the test compounds, in this case being the medium without supplements. […] The cells described above were also incubated for 24 hours with a 7 mM, normal glucose (NG) solution or in some instances, with a 15 mM, intermediary glucose (IG) solution. See, for example, FIG. 6. Subsequently, the cells were incubated for 24 hours. The same protocol was used for incubation with Nε-(carboxymethyl)lysine (CML, final concentration 1 micromolar) and 1,3-morpholino sidnonimine (SIN-1, final concentration 0.5 mM). […] Hyperglycemia is strongly associated with oxidative stress, an imbalance between the formation of reactive oxygen species and the present antioxidants. Excess reactive oxygen species react with critical cellular targets, viz. membrane lipids, proteins and (deoxy)ribonucleic acids. […] Accordingly, one of the targeted assays included studying a comparison of HG to HGERT conditions, where the oxidative damage was evaluated showing that the protein carbonyls decreased from 6.55 nM/mg protein with HG to 3.77 with […]=0.089). Protein carbonyls are end products of reactions between proteins and reactive oxygen species (ROS), formed during oxidative stress. […]

[3] = tested on: Geotrichum candidum cells (GCC); assay: Function and activity of freeze-dried Geotrichum candidum culture; format: cell-based
Source text: A starter culture with Geotrichum candidum cells (GCC) was produced by ID growing GCC in a medium containing 10% glucose and other nutrients. […] The function and activity of GCC was reduced during such preservation process. […] Function and activity was expressed by measuring how many doses GCC culture with a standardized amount of activity and function can be obtained per liter fermentation broth.

erythrocytes = assay: Radical-induced hemolysis of erythrocytes; format: cell-based; settings: erythrocytes exposed to hyperglycemic conditions, 24 h incubation
HUVEC cells [4] = assay: Eicosanoids in HUVEC pellets and supernatants; format: cell-based, human
Description: Another parameter evaluated in the targeted assays included the study of 23 eicosanoids in a comparison of HG versus HGERT conditions.
In studying the supernatants, 14,15-dihydroxy-5Z,8Z,11Z-eicosatrienoate (14,15-DiHETrE), produced from arachidonic acid via Cyp 2C and 2J to form epoxyeicosatrienoic acids (EETs), then converted to DiHETrE via sEH, decreased from 0.0085 to 0.0040 nM (p<0.05). This decrease in 14,15-DiHETrE is consistent with high glucose suppression of sEH, and should result in increased EETs, which would produce vasodilation. EETs were not, however, observed to be increased.

SMILES: OC[C@@H](O)[C@@H](O)CO [ERT, meso-1,2,3,4-tetrahydroxybutane]
- viability, oxidative damage, SOD activity, nitric oxide production, adhesion molecule production, transcriptome (HUVEC cells [1]): did not show changes
- protein carbonyls (HUVEC cells [2]): 3.77 nM/mg protein
- Change in GCC cell activity and function (blank set at 100) ([3]; 2% ERT): 120
- improvement of GCC activity and function ([3]; 2% ERT): 20%
- Doses/ltr fermentation broth ([3]; 2% ERT added before freeze drying): 621 Doses/ltr
- Change in GCC cell activity and function (blank set at 100) ([3]; 3% ERT): 126
- improvement of GCC activity and function ([3]; 3% ERT): 26%
- Doses/ltr fermentation broth ([3]; 3% ERT added before freeze drying): 652 Doses/ltr
- Change in GCC cell activity and function (blank set at 100) ([3]; 5% ERT): 107
- increase of GCC activity and function ([3]; 5% ERT): 8%
- Doses/ltr fermentation broth ([3]; 5% ERT added before freeze drying): 555 Doses/ltr
- radical-induced hemolysis (erythrocytes): able to inhibit radical-induced hemolysis
- 14,15-DiHETrE in supernatants (HUVEC cells [4]; HG vs HGERT): 4 pM
- TXB2 (HUVEC cells [4]; HG vs HGERT): 1.20
- 12-HETE in pellets (HUVEC cells [4]; HGERT vs HG): decreasing 12-HETE levels
